Data published in PubChem BioAssay AID248 (DTP/NCI, 2004).
Values joined by “and” are separate entries in the source; they are usually repeats but may differ in a detail not shown here. Equal entries are not always repeated. Toxic doses and inconclusive results are not listed.

System: L1210 leukemia ip in BDF1 mice, survival T/C
Assay: NCI In Vivo Anticancer Drug Screen. Data for tumor model L1210 Leukemia (intraperitoneal) in B6D2F1 (BDF1) mice
Settings: endpoint: mean survival time, higher = longer survival
Procedure, shortened: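 Tumor cells were implanted, animals were treated, and survival was followed. The result divides the treated measurement by the vehicle-control measurement.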

[1] = dose: 100.0 mg/kg/injection, schedule: Q01DX009 (ip), vehicle: Klucel (hydroxypropylcellulose) (HPC)
[2] = dose: 100.0 mg/kg/injection, schedule: Q04DX003 (ip), vehicle: Klucel (hydroxypropylcellulose) (HPC)
[3] = dose: 200.0 mg/kg/injection, schedule: Q01DX009 (ip), vehicle: Klucel (hydroxypropylcellulose) (HPC)
[4] = dose: 200.0 mg/kg/injection, schedule: Q04DX003 (ip), vehicle: Klucel (hydroxypropylcellulose) (HPC)
[5] = dose: 400.0 mg/kg/injection, schedule: Q04DX003 (ip), vehicle: Klucel (hydroxypropylcellulose) (HPC)
[6] = dose: 100.0 mg/kg/injection, schedule: Q01DX001 (ip), vehicle: Klucel (hydroxypropylcellulose) (HPC)
[7] = dose: 200.0 mg/kg/injection, schedule: Q01DX001 (ip), vehicle: Klucel (hydroxypropylcellulose) (HPC)
[8] = dose: 400.0 mg/kg/injection, schedule: Q01DX001 (ip), vehicle: Klucel (hydroxypropylcellulose) (HPC)
[9] = dose: 400.0 mg/kg/injection, schedule: Q04DX002 (ip), vehicle: saline with Tween-80
[10] = dose: 50.0 mg/kg/injection, schedule: Q01DX001 (ip), vehicle: saline
[11] = dose: 100.0 mg/kg/injection, schedule: Q01DX001 (ip), vehicle: saline
[12] = dose: 50.0 mg/kg/injection, schedule: Q04DX002 (ip), vehicle: Klucel (hydroxypropylcellulose) (HPC)
[13] = dose: 100.0 mg/kg/injection, schedule: Q04DX002 (ip), vehicle: Klucel (hydroxypropylcellulose) (HPC)
[14] = dose: 200.0 mg/kg/injection, schedule: Q04DX002 (ip), vehicle: Klucel (hydroxypropylcellulose) (HPC)
[15] = dose: 200.0 mg/kg/injection, schedule: Q01DX001 (ip), vehicle: saline
[16] = dose: 400.0 mg/kg/injection, schedule: Q01DX001 (ip), vehicle: saline

## Cc1ccnc(NS(=O)(=O)c2ccc(N=Nc3nc4[nH]c(N)nc(=S)c4[nH]3)cc2)n1
dose: 1.56 mg/kg/injection, schedule: Q01DX009 (ip), vehicle: Klucel (hydroxypropylcellulose) (HPC)
  T/C: 230 % of control
dose: 12.5 mg/kg/injection, schedule: Q01DX009 (ip), vehicle: Klucel (hydroxypropylcellulose) (HPC)
  T/C: 94 % of control and 108 % of control
dose: 25.0 mg/kg/injection, schedule: Q04DX003 (ip), vehicle: Klucel (hydroxypropylcellulose) (HPC)
  T/C: 162 % of control and 180 % of control
dose: 50.0 mg/kg/injection, schedule: Q04DX003 (ip), vehicle: Klucel (hydroxypropylcellulose) (HPC)
  T/C: 173 % of control and 182 % of control and 192 % of control

## CCOC(=O)Nc1ccc(NC(=O)OCC)cc1
[1]
  T/C: 89 % of control
[2]
  T/C: 96 % of control
[3]
  T/C: 89 % of control
[4]
  T/C: 93 % of control
[5]
  T/C: 111 % of control

## CCCCNC(=O)Nc1cccc(C(F)(F)F)c1
dose: 50.0 mg/kg/injection, schedule: Q01DX001 (sc), vehicle: carboxymethylcellulose (CMC)
  T/C: 106 % of control
dose: 100.0 mg/kg/injection, schedule: Q01DX001 (sc), vehicle: carboxymethylcellulose (CMC)
  T/C: 104 % of control
dose: 200.0 mg/kg/injection, schedule: Q01DX001 (sc), vehicle: carboxymethylcellulose (CMC)
  T/C: 104 % of control
dose: 400.0 mg/kg/injection, schedule: Q01DX001 (sc), vehicle: carboxymethylcellulose (CMC)
  T/C: 101 % of control

## O=C(/C=C/c1ccc2c(c1)OCO2)c1ccc2c(c1)OCO2
[1]
  T/C: 106 % of control
[2]
  T/C: 98 % of control
[3]
  T/C: 100 % of control
[4]
  T/C: 104 % of control
dose: 400.0 mg/kg/injection, schedule: Q01DX009 (ip), vehicle: Klucel (hydroxypropylcellulose) (HPC)
  T/C: 100 % of control
[5]
  T/C: 101 % of control

## CN(C)c1c(Cl)cc([N+](=O)[O-])cc1Cl
[6]
  T/C: 97 % of control
[7]
  T/C: 95 % of control
[8]
  T/C: 94 % of control

## Clc1cccc(N=C(Oc2cccc(Cl)c2)c2ccccc2)c1
dose: 25.6 mg/kg/injection, schedule: Q04DX002 (ip), vehicle: saline with Tween-80
  T/C: 176 % of control
dose: 64.0 mg/kg/injection, schedule: Q04DX002 (ip), vehicle: saline with Tween-80
  T/C: 101 % of control
dose: 160.0 mg/kg/injection, schedule: Q04DX002 (ip), vehicle: saline with Tween-80
  T/C: 97 % of control
[9]
  T/C: 93 % of control

## C=COC(=O)NC(CCSC)C(=O)O (centres undefined)
[10]
  T/C: 101 % of control
[11]
  T/C: 98 % of control

## CCOC(=O)n1ccc2nc3ccccc3cc21
[6]
  T/C: 100 % of control
[7]
  T/C: 105 % of control
[8]
  T/C: 90 % of control

## CC(=O)Oc1ccc([N+](=O)[O-])cc1
dose: 25.0 mg/kg/injection, schedule: Q04DX002 (ip), vehicle: Klucel (hydroxypropylcellulose) (HPC)
  T/C: 102 % of control
[12]
  T/C: 89 % of control
[13]
  T/C: 90 % of control
[14]
  T/C: 92 % of control and 96 % of control

## CNc1cc(Cl)ncn1
[10]
  T/C: 90 % of control
[11]
  T/C: 93 % of control
[15]
  T/C: 95 % of control

## CCSC(C)(C)C(C)(C#N)NNC(C)(C#N)C(C)(C)SCC (centres undefined)
[11]
  T/C: 101 % of control
[15]
  T/C: 95 % of control
[16]
  T/C: 93 % of control

## CN(C)N=Nc1ccc(S(=O)(=O)Nc2ncccn2)cc1
dose: 100.0 mg/kg/injection, schedule: Q04DX002 (ip), vehicle: saline with Tween-80
  T/C: 114 % of control
dose: 264.0 mg/kg/injection, schedule: Q04DX003 (ip), vehicle: saline with Tween-80
  T/C: 100 % of control
[9]
  T/C: 177 % of control
dose: 400.0 mg/kg/injection, schedule: Q04DX003 (ip), vehicle: saline with Tween-80
  T/C: 105 % of control
dose: 400.0 mg/kg/injection, schedule: Q04DX003 (ip), vehicle: saline
  T/C: 176 % of control
dose: 600.0 mg/kg/injection, schedule: Q04DX003 (ip), vehicle: saline
  T/C: 124 % of control

## Cc1c(CC#N)cc(C)c2c3c([nH]c12)-c1ccccc1CC3
[12]
  T/C: 102 % of control
[13]
  T/C: 106 % of control
[14]
  T/C: 102 % of control
dose: 400.0 mg/kg/injection, schedule: Q04DX002 (ip), vehicle: Klucel (hydroxypropylcellulose) (HPC)
  T/C: 104 % of control

## CCOC(Nc1cc(Cl)cc(Cl)c1)C(=O)c1ccccc1 (centres undefined)
[11]
  T/C: 97 % of control
[15]
  T/C: 91 % of control
[16]
  T/C: 91 % of control
